Data as given in patent US8642590B2, “Alkylcyclohexylethers of dihydrotetraazabenzoazulenes” (Hoffmann-La Roche Inc., priority 2008, dated 2014).
Counter-ions that a name gives are not always drawn. Like-named read-outs stand apart in the source and are kept apart here.

Biological target: T1, human V1a receptor (Homo sapiens, UniProt P37288)
T1 construct: expressed in transfected cells; host or cells: HEK293 cells, transiently transfected; cell membranes prepared
Assay: human V1a receptor binding study (3H-Vasopressin, SPA beads, HEK293 membranes)
Protocol: The human V1a receptor was cloned by RT-PCR from total human liver RNA. The coding sequence was subcloned in an expression vector after sequencing to confirm the identity of the amplified sequence. […] Cell membranes were prepared from HEK293 cells transiently transfected with the expression vector and grown in 20 liter fermenters with the following protocol.
50 g of cells are resuspended in 30 ml freshly prepared ice cold Lysis buffer (50 mM HEPES, 1 mM EDTA, 10 mM magnesium dichloride adjusted to pH=7.4+complete cocktail of protease inhibitor (Roche Diagnostics)). Homogenized with Polytron for 1 min and sonicated on ice for 2×2 minutes at 80% intensity (Vibracell sonicator). The preparation is centrifuged 20 min at 500 g at 4° C., the pellet is discarded and the supernatant centrifuged 1 hour at 43,000 g at 4° C. (19,000 rpm). The pellet is resuspended in 12.5 ml Lysis buffer+12.5 ml Sucrose 20% and homogenized using a Polytron for 1-2 min. The protein concentration is determined by the Bradford method and aliquots are stored at −80° C. until use. For binding studies 60 mg Yttrium silicate SPA beads (Amersham) are mixed with an aliquot of membrane in binding buffer (50 mM Tris, 120 mM sodium chloride, 5 mM potassium chloride, 2 mM Calcium dichloride, 10 mM magnesium dichloride) for 15 minutes with mixing. 50 μl of bead/membrane mixture is then added to each well of a 96 well plate, followed by 50 μl of 4 nM 3H-Vasopressin (American Radiolabeled Chemicals). For total binding measurement 100 μl of binding buffer are added to the respective wells, for non-specific binding 100 μl of 8.4 mM cold vasopressin and for compound testing 100 μl of a serial dilution of each compound in 2% dimethyl sulfoxide. The plate is incubated 1 h at room temperature, centrifuged 1 min at 1000 g and counted on a Packard Top-Count. Non-specific binding counts are subtracted from each well and data is normalized to the maximum specific binding set at 100%. To calculate an IC 50 the curve is fitted using a non-linear regression model (XLfit) and the Ki is calculated using the Cheng-Prussoff equation.

[1] = membranes of HEK293 cells transiently transfected with human V1a receptor, 3H-Vasopressin, Ki calculated using the Cheng-Prussoff equation, read-out: pKi (hV1a) (converted)

T1 sequence (P37288 whole entry): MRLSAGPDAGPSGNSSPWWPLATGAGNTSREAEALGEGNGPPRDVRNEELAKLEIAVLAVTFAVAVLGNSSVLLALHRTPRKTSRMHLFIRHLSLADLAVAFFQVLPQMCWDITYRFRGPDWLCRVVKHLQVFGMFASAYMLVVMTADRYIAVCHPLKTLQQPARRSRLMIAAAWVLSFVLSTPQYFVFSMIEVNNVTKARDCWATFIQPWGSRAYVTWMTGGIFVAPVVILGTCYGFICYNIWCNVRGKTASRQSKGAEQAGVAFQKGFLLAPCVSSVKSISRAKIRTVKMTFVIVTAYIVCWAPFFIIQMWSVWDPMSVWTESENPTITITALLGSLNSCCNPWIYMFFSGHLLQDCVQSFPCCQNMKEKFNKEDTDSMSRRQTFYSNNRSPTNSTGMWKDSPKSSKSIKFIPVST

With `CC(C)(C)OC(=O)N1Cc2cc(Cl)ccc2-n2c(nnc2[C@H]2CC[C@H](OC3CCCC3)CC2)C1` (stereo in doubt) [Example 36, trans-8-Chloro-1-(4-cyclopentyloxy-cyclohexyl)-4H,6H-2,3,5,10b-tetraaza-benzo[e]azulene-5-carboxylic acid tert-butyl ester] the Ki [1] was 3.24 nM.

In the case of `CC(C)O[C@H]1CC[C@H](c2nnc3n2-c2ccc(Cl)cc2CN(Cc2ccccn2)C3)CC1` [Example 15, trans-8-Chloro-1-(4-isopropoxy-cyclohexyl)-5-pyridin-2-ylmethyl-5,6-dihydro-4H-2,3,5,10b-tetraaza-benzoazulene], the Ki [1] is reported as 1.41 nM.

`COC[C@@H](C)O[C@H]1CC[C@H](c2nnc3n2-c2ccc(Cl)cc2CN(C)C3)CC1` (stereo in doubt) [Example 49, (−)-trans-8-Chloro-1-[4-(2-methoxy-1-methyl-ethoxy)-cyclohexyl]-5-methyl-5,6-dihydro-4H-2,3,5,10b-tetraaza-benzo[e]azulene] was tested, and the Ki [1] was 5.5 nM.

In the case of `CC[C@@H](C)O[C@H]1CC[C@H](c2nnc3n2-c2ccc(Cl)cc2CN(C)C3)CC1` (single isomer, unassigned) [Example 29, (−)-trans-1-(4-sec-Butoxy-cyclohexyl)-8-chloro-5-methyl-5,6-dihydro-4H-2,3,5,10b-tetraaza-benzo[e]azulene], the Ki [1] is reported as 1.58 nM.

`Clc1ccc2c(c1)CNCc1nnc([C@H]3CC[C@@H](OC4CCCCC4)CC3)n1-2` [Example 43, cis-8-Chloro-1-(4-cyclohexyloxy-cyclohexyl)-5,6-dihydro-4H-2,3,5,10b-tetraaza-benzoazulene hydrochloride] gave a Ki [1] of 174 nM.

For `CC(=O)OCC(=O)N1Cc2cc(Cl)ccc2-n2c(nnc2[C@H]2CC[C@H](OC(C)C)CC2)C1` [Example 16, trans-Acetic acid 2-[8-chloro-1-(4-isopropoxy-cyclohexyl)-4H,6H-2,3,5,10b-tetraaza-benzoazulen-5-yl]-2-oxo-ethyl ester], the Ki [1] was 3.47 nM.

Compound `CN1Cc2cc(Cl)ccc2-n2c(nnc2[C@H]2CC[C@@H](OC3CCCCC3)CC2)C1` [Example 44, cis-8-Chloro-1-(4-cyclohexyloxy-cyclohexyl)-5-methyl-5,6-dihydro-4H-2,3,5,10b-tetraaza-benzoazulene] has a Ki [1] of 14.1 nM.

`CN1Cc2cc(Cl)ccc2-n2c(nnc2[C@H]2CC[C@H](OC3COC3)CC2)C1` [Example 58, trans-8-Chloro-5-methyl-1-[4-(oxetan-3-yloxy)-cyclohexyl]-5,6-dihydro-4H-2,3,5,10b-tetraaza-benzo[e]azulene] gave a Ki [1] of 46.8 nM.

In the case of `CC(C)(C)OC(=O)N1Cc2cc(Cl)ccc2-n2c(nnc2[C@H]2CC[C@@H](OC3CCCCC3)CC2)C1` [Example 42, cis-8-Chloro-1-(4-cyclohexyloxy-cyclohexyl)-4H,6H-2,3,5,10b-tetraaza-benzoazulene-5-carboxylic acid tert-butyl ester], the Ki is reported as 17.8 nM.

In the case of `CC(C)O[C@H]1CC[C@H](c2nnc3n2-c2ccc(Cl)cc2CN(S(C)(=O)=O)C3)CC1` [Example 11, trans-8-Chloro-1-(4-isopropoxy-cyclohexyl)-5-methanesulfonyl-5,6-dihydro-4H-2,3,5,10b-tetraaza-benzoazulene], the Ki [1] is reported as 1.1 nM.

For `CC(C)O[C@H]1CC[C@H](c2nnc3n2-c2ccc(Cl)cc2CN(S(=O)(=O)N(C)C)C3)CC1` [Example 14, trans-8-Chloro-1-(4-isopropoxy-cyclohexyl)-4H,6H-2,3,5,10b-tetraaza-benzoazulene-5-sulfonic acid dimethylamide], the Ki [1] was 1 nM.

Work on `CCC(C)O[C@H]1CC[C@H](c2nnc3n2-c2ccc(Cl)cc2CN(C(=O)OC(C)(C)C)C3)CC1` (mixture of isomers) [Example 25, (RS)-trans-1-(4-sec-Butoxy-cyclohexyl)-8-chloro-4H,6H-2,3,5,10b-tetraaza-benzo[e]azulene-5-carboxylic acid tert-butyl ester] yielded a Ki [1] of 3.72 nM.
